Biological target: T1, Rac2 (Mus musculus, UniProt Q05144)
T1 construct: reduced the expression of immune cell-specific Rac2 in the FBR capsules by about 80%; from tissue; host or cells: FBR capsule tissue around mechanically stimulating implants in C57/BL6 wild-type mice (Jackson labs Stock No: 000664)
Assay: Rac inhibition in the mechanically stimulating implant (MSI) mouse model of foreign body response
Type: in vivo
Conditions: C57/BL6 wildtype mice
Description: Implantation Experiments. Standard silicone implants and MS's were implanted in C57/BL6 mice for either 2 weeks or 1 month. A 2 cm incision was made on the dorsum of the mouse and a subcutaneous pocket was created. Control implants were placed in the subcutaneous pocket and the incision was closed using 6-0 nylon suture or staples. For vibration-enabled implants, the implants were placed into a subcutaneous pocket, similar to the procedure described above and wires were guided through the skin using a modified seldinger technique. 3V batteries with an amplitude of 1.38 G and a frequency of 203 Hz were used to mimic human conditions. MS's were vibrated for 1 hour daily from day 4 (D4) post implantation to day 11 (D11). This time period was chosen based on previous studies, showing that increased mechanical stress during this period effectively induces fibrosis.
Histology and Trichrome staining. At each timepoint, the mice were euthanized, and the implants were resected en bloc with the surrounding scar tissue. The implants were removed and the scar tissue along with the skin was fixed in 4% paraformaldehyde overnight and embedded in paraffin. Scar tissue and implants from humans were collected from patients and processed within an hour. For analysis of the capsule, paraffin sections were stained with trichrome (SigmaAldrich) as described previously. Imaging was performed on a Leica DM5000 B upright microscope. Image analysis software (Image J) was used to quantify collagen staining.
Immunostaining. Immunohistological staining was performed on paraffin sections as described previously. Briefly, heat-based antigen retrieval was followed by blocking with 5% goat serum in PBS. The following primary antibodies were used at a 1:200 dilution (as recommended by the manufacturer) and incubated overnight at 4° C.: anti-a-SMA (Abcam ab5694) or anti-Rac2 (Fischer Scientific, DF6273). Incubation of primary antibody-stained specimens with Alexa Fluor 488 secondary antibody (Thermo Fisher Scientific) was performed at a 1:400 dilution for 1 hour at room temperature. Sections were subsequently mounted using Fluoroshield (F6057, Sigma, Saint Louis, MO) with 4′, 6-diamidino-2-phenylindole (DAPI) to stain cell nuclei. Imaging was performed on a Leica DM5000 B upright microscope. Image analysis was performed using Matlab.
Rac Inhibition Experiments. EHT 1864 2HCl, a potent Rac family GTPase inhibitor, was acquired from Selleckchem (Houston, TX). MS's were implanted in C57/BL6 wildtype mice for 28 days utilizing the modified Seldinger technique described above. Mice were injected with EHT 1864 2HCl (10 mg/kg/day) (n=4) or saline (n=4) from Days 0-26. FBR capsule tissue was explanted on day 28 and processed for histologic analysis.
Statistical Analyses. Results are presented as mean±SEM. Standard data analysis was performed using student's ttests. ANOVA with posthoc tukey's test was used for multiple comparisons. Results were considered significant for *p<0.05.

[1] = 10 mg/kg/day Days 0-26 vs saline, day 28
[2] = local injection 10 mg/kg/day Days 0-26 vs saline, capsule explanted day 28

- capsule thickness (H&E staining) [1]: decreased
- collagen deposition (trichrome staining) [1]: decreased
- overall FBR [1]: significantly reduced
- reduction in the activation of myofibroblasts in MSI capsules (aSMA immunostaining) [2]: about 90%
- reduction of expression of immune cell-specific Rac2 in the FBR capsules (immunostaining, percent area positive) [2]: about 80%
Structure (SMILES): Cl.Cl.O=c1cc(CN2CCOCC2)occ1OCCCCCSc1ccnc2cc(C(F)(F)F)ccc12 [EHT 1864 2HCl]
